Earlier results in US20260024626A1, “TOXICITY […], OPERATION METHOD OF TOXICITY […], AND OPERATION PROGRAM OF TOXICITY […]” (FUJIFILM Corporation, priority 2023, published 2026).
Read-outs that look alike come from different tables or passages of the source.

Key:
[1] = test system: TA98
[2] = test system: TA1535
[3] = test system: TA100
[4] = test system: WP2uvrA
[5] = test system: TA1537
[6] = actual test outcome, as against the positive outcome expected from the assumed metabolic reaction
[7] = With metabolic activation (rat liver extract and coenzyme added)
[8] = Without metabolic activation (no rat liver extract and coenzyme)

Nc1ccccc1O [compound A]
Ames test result (toxicity), TA98, Intercalation between base pairs [1, 7]: No
Ames test result (toxicity), TA98, Intercalation between base pairs [1, 8]: No
Ames test result (toxicity), TA1535, Covalent bonding to DNA [2, 7]: No
Ames test result (toxicity), TA1535, Covalent bonding to DNA [2, 8]: No
Ames test result (toxicity), TA100, Covalent bonding to DNA [3, 7]: Toxic
Ames test result (toxicity), TA100, Covalent bonding to DNA [3, 8]: No
Ames test result (toxicity), WP2uvrA, Covalent bonding to DNA [4, 7]: No
Ames test result (toxicity), WP2uvrA, Covalent bonding to DNA [4, 8]: No
Ames test result (toxicity), TA1537, Intercalation between base pairs [5, 7]: No
Ames test result (toxicity), TA1537, Intercalation between base pairs [5, 8]: No

monomethylnitrobenzene
determination in the in vitro toxicity evaluation test [6]: negative determination

Nc1ccccc1Cl [compound C]
Ames test result (toxicity), TA98, Intercalation between base pairs [1, 7]: No
Ames test result (toxicity), TA98, Intercalation between base pairs [1, 8]: No
Ames test result (toxicity), TA1535, Covalent bonding to DNA [2, 7]: No
Ames test result (toxicity), TA1535, Covalent bonding to DNA [2, 8]: No
Ames test result (toxicity), TA100, Covalent bonding to DNA [3, 7]: No
Ames test result (toxicity), TA100, Covalent bonding to DNA [3, 8]: No
Ames test result (toxicity), WP2uvrA, Covalent bonding to DNA [4, 7]: No
Ames test result (toxicity), WP2uvrA, Covalent bonding to DNA [4, 8]: No
Ames test result (toxicity), TA1537, Intercalation between base pairs [5, 7]: No
Ames test result (toxicity), TA1537, Intercalation between base pairs [5, 8]: No

Nc1ccccc1-c1ccccc1 [compound B]
Ames test result (toxicity), TA98, Intercalation between base pairs [1, 7]: No
Ames test result (toxicity), TA98, Intercalation between base pairs [1, 8]: No
Ames test result (toxicity), TA1535, Covalent bonding to DNA [2, 7]: No
Ames test result (toxicity), TA1535, Covalent bonding to DNA [2, 8]: No
Ames test result (toxicity), TA100, Covalent bonding to DNA [3, 7]: Toxic
Ames test result (toxicity), TA100, Covalent bonding to DNA [3, 8]: No
Ames test result (toxicity), WP2uvrA, Covalent bonding to DNA [4, 7]: No
Ames test result (toxicity), WP2uvrA, Covalent bonding to DNA [4, 8]: No
Ames test result (toxicity), TA1537, Intercalation between base pairs [5, 7]: No
Ames test result (toxicity), TA1537, Intercalation between base pairs [5, 8]: No
